Patent US20030035851A1, “Anti-cancer agents and method of use thereof” (priority 2001, published 2003)
In brackets after ≈: the same amount, converted by molar mass.

Assays:
LNCaP cells [1] = test: MTT cell proliferation assay, LNCaP; type: cell-based, Human; conditions: for ED50 values from MTT Assay, LNCaP: concentration giving 50% inhibition of cancer cell growth, 72 hours, linear interpolation of FIGS. 1-3
Protocol: (§1) The cells were routinely seeded at 1×10^5 cells/ml in T-75 flasks, allowed to attach overnight, and then treated with the oridonin or the lupulone. At different times, the cells were harvested by trypsinization.
(§2) The inhibitory effect on a cell's ability to divide was determined by an MTT (3-(4,5-dimethylthiazol-2-yl)-2,5-diphenyl tetrazolium bromide) assay. The assay reagents were purchased from Boehringer Mannheim (Roche Diagnosis Corp, Indianapolis, Ind.). […] The MTT assay provides a method whereby cell proliferation can be determined by […]. The protocol for the cell viability assay was provided by Boehringer Mannheim and modified as described below.
(§3) The cells were then incubated at […] and allowed to attach to the plates. After 24 hours, 20 microliter aliquots having varying concentrations of oridonin or lupulone were added to the cell culture. Each aliquot was plated into 3 wells to obtain mean values. […] The plates were incubated at 37° C. in a CO2 incubator for 72 hours. After 72 hours, the culture medium was carefully removed without disturbing the cells and replaced by 100 microliters of fresh cell medium. 10 microliters of MTT was added to each well and the plates were incubated in the CO2 incubator at 37° C. for 4 hours. Afterwards, 100 microliters of sodium dodecylsulfate (SDS) solubilizing reagent (from Boehringer Mannheim) was added to each well. The plates were placed in the CO2 incubator at 37° C. for about 10-14 hours. Afterwards, the cell concentration of each plate was determined by an ELISA Reader (EL800, Bio-Tek Instruments, Inc.) at a wavelength of […]. The percent cell viability was calculated according to the equation below: [formula]
(§4) where V is the percent cell viability, Acontrol is the absorption of the control cells, and Atreated is the absorption of the treated cells.

LNCaP cell cycle = test: Cell cycle distribution by DNA flow cytometry, LNCaP; type: cell-based, Human; set-up: cells arrested in the G1 phase: dose or concentration left out as unconfirmed
Source text: The cell cycle is the program for cell growth and cell proliferation (cell division). There are four phases of the cell cycle: G1, S, G2, and M. The G1 phase is characterized by gene expression and protein synthesis, and is regulated primarily by extracellular stimuli. During the S phase, the cell replicates its DNA. During the G2 phase, the cell undergoes growth and protein synthesis in preparation for cell division. The M phase is characterized by cytokinesis of the cell into two daughter cells.
The effect of oridonin and lupulone on LNCaP cells was determined by the following method. 2×10^6-4×10^6 cultured cells were exposed to varying concentrations (e.g., 1.5 microgram/milliliter (ug/ml)-3 ug/ml) of oridonin or lupulone for 24-48 hours in 12.5 cm^2 area flasks before being harvested. The cells were washed with phosphate buffered saline (PBS) and fixed in ice-cold 70% ethanol.
The distribution of cells in various stages of the cell cycle were determined by first staining the cells with the DNA specific fluorochrome, and then by measuring cellular DNA content with an ELITE ESP flow cytometer (Coulter Inc., Fl.) using UV laser illumination. The Multicycle program (Phoenix Flow Systems) was used to deconvolute the DNA frequency histograms to estimate the frequency of cells in different phases of the cell cycle, and those in apoptosis.

MCF-7 cells = test: MTT cell proliferation assay, MCF-7; type: cell-based; conditions: for ED50 values from MTT Assay, MCF-7: concentration giving 50% inhibition of cancer cell growth, 72 hours, linear interpolation of FIGS. 1-3
Protocol: as §1, §2, §3, §4

DU-145 cells = test: MTT cell proliferation assay, DU-145; type: cell-based; conditions: for ED50 values from MTT Assay, DU-145: concentration giving 50% inhibition of cancer cell growth, 72 hours, linear interpolation of FIGS. 1-3
Protocol: as §1, §2, §3, §4

MCF-7 cell cycle = test: Cell cycle distribution by DNA flow cytometry, MCF-7; type: cell-based; conditions: for cells arrested in the G1 phase: FIG. 7
LNCaP cells [2] = test: TdT DNA strand break apoptosis assay, LNCaP; type: cell-based, Human; conditions: oridonin 13.7uM, 48 hours, FIG. 13
Protocol: To determine apoptosis in cells, a quantitative assay for the detection of DNA breakage, using the terminal deoxyribonucleotide transferase (TdT) color reaction assay (TiterTACS, Trevigen, Gaithersburg, Md.), was employed. Cells were fixed in 1% ice-cold formaldehyde for 15 minutes and postfixed in 70% ethanol overnight at −20° C. DNA strand breaks were directly labeled with fluorescent (2′-deoxyuridine 5′-triphosphate) dUTP in the reaction catalyzed by exogenous terminal deoxynucleotidyltransferase using the APO-Direct kit (Phoenix Flow System, San Diego, Calif.) according to the protocol provided with the kit. The green (FITC) and red (PI) fluorescence intensities of cells subjected to labeling DNA strand breaks with the use of TdT were measured using a FACScan Flow Cytometer (Becton Dickinson Immunocytometry Systems, San Jose, Calif.). The data from 10^4 cells per sample were collected, stored and analyzed using CELL Quest software (Becton Dickinson and Co.).

Bax = test: Flow cytometric measurement of Bax protein in LNCaP; type: cell-based, Human; conditions: flow cytometry
Protocol: (§5) To further verify the increase in Bax and the decrease in Bcl-2 proteins, and to determine the p53 protein levels induced by oridonin, flow cytometric measurement was performed to compare the results as obtained by Western blot. Following treatment with 3-9 μM of oridonin for 48 h, the LNCaP cells were trypsinized and washed with PBS. The cells were fixed in 1% formaldehyde in PBS on ice for 10 minutes and then permeabilized with 70% ethanol at −20° C. After fixation, the cells were rinsed with PBS, treated with a blocking solution containing 1% (w/v) bovine serum albumin (BSA) and 0.1% sodium azide in PBS (PBS-BSA) for 2 min at room temperature. The cells were subsequently added to a 100 μl aliquot of BSA/PBS solution containing 1:50 diluted primary antibody for Bcl-2, Bax (stained LNCaP) and p53. The mixtures were incubated at room temperature in the dark for 1 hr. The cells were subsequently washed twice with PBS-BSA buffer. The secondary antibody was added at 1:50 dilution for 30 minutes at room temperature in the dark, then counterstained for DNA by the addition of 1 ml of PI […] solution (final PI concentration 5 μg/ml) containing 100 μg/ml of RNAse A. Cellular fluorescence was measured with the ELITE ESP flow cytometer/cell sorter (Coulter Inc., Miami, Fla.) using the argon ion laser (emission at 488 nm). Fluorescence signals were collected using the standard configuration of the flow cytometer (green fluorescence for antibodies containing Bcl-2, Bax, and p53, and red fluorescence for DNA staining). 10,000 cells were analyzed per sample.

[3] = tested on: Bax and Bcl-2 protein expression; test: Western blot of Bax and Bcl-2 in LNCaP; type: cell-based, Human; conditions: 8.24 uM and 13.74 uM of oridonin, 48 hours, FIG. 11
Protocol: To determine the Bcl-2:Bax ratio in oridonin-incubated LNCaP cells, a Western blotting procedure was performed. LNCaP cells were prepared such that one sample contained was incubated in the absence of oridonin, another sample in 8.24 uM of oridonin, and another sample in 13.74 uM of oridonin. The samples were incubated for 48 hours. Equal amounts of protein (10 micrograms) from LNCaP cell lysates were applied to a 10% SDS/PAGE (sodium dodecylsulfate/polyacrylamide gel electrophoresis) gel, and were then transferred to a PVDF membrane. The blots were probed with one of two primary antibodies comprising 1:100 Anti-Bax YTH-2D2 (Lot#3148E0, R&D, MN USA), and 1:100 Bcl-2 Oncoprotein (Clone 124, No. M0887), followed by second antibody exposure of 1:1000 Anti-mouse IgG-HRP (se-2005, Santa Cruz Biotechnology, USA) for 1 hour at […] temp. The immuno-binding signals were detected by the chemiluminescence method (ECL Western blotting system). The experiments were run in triplicates.

p53 = test: Flow cytometric measurement of p53 protein in LNCaP; type: cell-based, Human; conditions: for increase in p53 concentration: FIG. 12
Protocol: as §5

Bcl-2 = test: Flow cytometric measurement of Bcl-2 protein in LNCaP; type: cell-based, Human; conditions: 8.24 uM oridonin, flow cytometry, CTRL 11.3
Protocol: as §5, with “The cells were subsequently added to a 100 μl aliquot of BSA/PBS solution containing 1:50 diluted primary antibody for Bcl-2, Bax (stained LNCaP) and p53. The mixtures were incubated at room temperature in the dark for 1 hr. The cells were subsequently washed twice with PBS-BSA buffer.” left out

DU-145 cell cycle = test: Cell cycle distribution by DNA flow cytometry, DU-145; type: cell-based; conditions: for increase in the number of cells arrested in the S phase compared to the control / cells arrested in the G2M phase / cell cycle arrest phase: DU-145; for increase in the number of cells arrested in the S phase compared to the control: FIG. 6
LNCaP and DU-145 = test: Cell growth inhibition of LNCaP and DU-145 by DES (FIG. 14); type: cell-based; conditions: previous study
[4] = about 100 ug/ml of lupulone, FIG. 2
[5] = about 5 ug/ml of oridonin, FIG. 1

Molecule: CC(C)=CCC1=C(O)C(CC=C(C)C)(CC=C(C)C)C(=O)C(C(=O)CC(C)C)=C1O [Lupulone, lupulone]
- proliferation decreased compared to the control (LNCaP cells [1]; [4]): more than 75%
- ED50 values from MTT Assay, LNCaP (LNCaP cells [1]): 36.53 µg/mL (≈ 88.1 µM)
- increase of cells arrested in the G2M phase compared to cells not exposed (LNCaP cell cycle; lupulone (50 μg per FIG. 5 legend)): about 100%
- proliferation decreased compared to the control (MCF-7 cells; about 100 ug/ml of lupulone, FIG. 3): more than 85%
- ED50 values from MTT Assay, MCF-7 (MCF-7 cells): 56.62 µg/mL (≈ 137 µM)
- proliferation decreased compared to the control (DU-145 cells; [4]): more than 55%
- ED50 values from MTT Assay, DU-145 (DU-145 cells): 89.7 µg/mL (≈ 216 µM)
- effect on cell cycle (MCF-7 cell cycle; 60 micromolar (25 microgram/milliliter)): G1 phase arrest
- effect on cell proliferation (MCF-7 cell cycle; 120 micromolar (50 microgram/milliliter)): complete block of cell proliferation

Molecule: oridonin
- proliferation reduced over that of the control (LNCaP cells [1]; [5]): about 75%
- ED50 values from MTT Assay, LNCaP (LNCaP cells [1]): 2.11 µg/mL
- cell apoptosis (LNCaP cells [2]): About 6%
- increase in the ratio of Bax/Bcl-2 (Bax; 8.24uM of oridonin): ~75%
- Bax/Bcl-2 (Bax; 8.24 uM oridonin, CTRL 1): 1.8
- Bax (Bax; 8.24 uM oridonin, CTRL 11.8): 14.5
- more cells arrested in the G1 phase compared to cells not exposed (LNCaP cell cycle; 3 ug/ml of oridonin, FIG. 5): over 25%
- cell cycle arrest phase (LNCaP cell cycle; oridonin): G1 cell cycle arrest
- cells in the G1 phase of the cell cycle (LNCaP cell cycle; oridonin 3 μg/ml, 24 hr, FIG. 4): over 65%
- cells arrested in the G1 phase (LNCaP cell cycle; oridonin, FIG. 9b): about 68%
- ratio of Bax/Bcl-2 by Western blot [3]: increased significantly
- increase in p53 concentration (p53; 8.2 uM of oridonin): Approximately 40%
- increase in the ratio of p53/Bcl-2 (p53; 8.24uM oridonin, flow cytometry): 100%
- p53/Bcl-2 (p53; 8.24 uM oridonin, flow cytometry, CTRL 1): 2.0
- p53 (p53; 8.24 uM oridonin, flow cytometry, CTRL 8.8): 12.3
- increase in p53 concentration (p53; 13.74 uM of oridonin): ~100%
- ED50 values from MTT Assay, MCF-7 (MCF-7 cells): 1.71 µg/mL
- absorbance reading of MTT (MCF-7 cells; under 15 ug/ml of oridonin, FIG. 3): 0
- proliferation decreased over that of the control (DU-145 cells; [5]): more than 80%
- ED50 values from MTT Assay, DU-145 (DU-145 cells): 3.03 µg/mL
- Bcl-2 (Bcl-2): 7.9
- cells arrested in the G1 phase (MCF-7 cell cycle; 25 ug/ml): about 35%
- cells arrested in the G1 phase (MCF-7 cell cycle; 50 ug/ml): about 90%
- cells arrested in the G1 phase (DU-145 cell cycle; DU-145 (so in the source), about 8.20 uM-22 uM of oridonin, FIG. 10): over 60%
- increase in the number of cells arrested in the S phase compared to the control (DU-145 cell cycle; 1.5 ug/ml of oridonin): ~16%
- increase in the number of cells arrested in the S phase compared to the control (DU-145 cell cycle; 3.0 ug/ml of oridonin): about 30%
- cells arrested in the G2M phase (DU-145 cell cycle; FIG. 9d): about 37%
- cells arrested in the G2M phase (DU-145 cell cycle; about 8.20 uM-22 uM of oridonin, FIG. 10): 30-55%
- cell cycle arrest phase (DU-145 cell cycle; oridonin): G2M arrest

Molecule: CC/C(=C(/CC)c1ccc(O)cc1)c1ccc(O)cc1 [DES, reference compound]
- times more sensitive in inhibiting LNCaP than in inhibiting DU-145 (LNCaP and DU-145): about 2.5 times
- cell cycle arrest phase (LNCaP cell cycle; DES (30 μM per FIG. 15 legend)): G2M phase arrest
- cell cycle arrest phase (DU-145 cell cycle; DES): G2M phase arrest
